# Patent publication US10344002B2, “Compositions and methods for treating metabolic disorders” (NuSirt Sciences, Inc., priority 2016, dated 2019)
# Key:
# 3T3L1 adipocytes = assay: Fatty acid oxidation (oxygen consumption rate) in 3T3L1 adipocytes; type: cell-based; conditions: for baseline OCR, area under the curve (FIG. 10A): control approximately 6000; for palmitate induced OCR, area under the curve (FIG. 10B): control approximately 52000
# C. elegans = assay: Lifespan of C. elegans under normal and mild oxidative stress (Paraquat) conditions; type: in vivo; conditions: for increase of median lifespan: 10 nM and 100 nM, p<0.0002
# Procedure: Lifespan Protocol: Wild-type worms were synchronized and hatched L1s were transferred to normal NGM agar plates until L4/young adult stage (3 days). 100 synchronized stage L4 worms per group were picked and placed on NGM agar plates seeded with E. coli strain OP-50 (=day 1 of study). Paraquat was added in the indicated concentration to the agar plates, the Compound 2 concentrations were dissolved in the E. coli suspension. The worms were maintained at 21° C. throughout the duration of the study. Live worms were placed on new plates every day to eliminate progeny.
# Statistics: For the statistical analysis of the lifespan study with C. elegans, data were analyzed via Kaplan-Meier survival curves and statistical significance between curves was determined with the Log-rank (Mantel_Cox) test using Prism 6 (GraphPad Software, La Jolla Calif., USA, www.graphpad.com).
# AMPK [1] = assay: Western blot, P-AMPK/AMPK in C. elegans treated from L1 stage to adulthood; type: in vivo; conditions: for ratio of P-AMPK/AMPK (FIG. 7B): 3 days, control approximately 0.18
# Procedure: C. elegans culture: Synchronized L1 wild-type worms were transferred to NGM agar plates with the following treatments until adulthood (3 days): 1. control NGM plates, 2. NGM plate with 10 nM Compound 2 added to E. coli suspension, 3. NGM plate with 100 nM Compound 2 added to E. coli suspension.
# (§1) Western blots: Phospho-AMPK, AMPK, Phospho-ACC, ACC antibodies were obtained from Cell Signaling (Danvers, Mass.). Sir2 antibody was obtained from MyBiosource (San Diego, Calif.). Protein levels of cell extracts were measured by BCA kit (Thermo Scientific, Pittsburgh, Pa.). For Western blot, 10-50 μg protein was resolved on 4-15% gradient polyacrylaminde gels (Criterion precast gel, Bio-Rad Laboratories, Hercules, Calif.), transferred to either PVDF or nitrocellulose membranes, incubated in blocking buffer (3% BSA or 5% non-fat dry milk in TBS) and then incubated with primary antibody (1:1000 dilution), washed and incubated with horseradish peroxidase- or fluorescence-conjugated secondary antibody (1:10000 dilution). Visualization was conducted using BioRad ChemiDoc instrumentation and software (Bio-Rad Laboratories, Hercules, Calif.) and band intensity was assessed using Image Lab 4.0 with correction for background and loading controls.
# AMPK [2] = assay: Western blot, P-AMPK/AMPK in C2C12 muscle cells; type: cell-based; conditions: 4 hours; for ratio of P-AMPK/AMPK (FIG. 6A): control approximately 0.75
# Procedure: (§2) Cell Culture: C2C12 muscle cells were seeded with 400,000 cells per well on 6-well tissue culture plates in Dulbecco's modified eagle's medium (DMEM) containing 10% fetal bovine serum (FBS) and antibiotics (1% penicillin-streptomycin) at 37° C. in 5% CO2. After reaching confluency (24 hours), cells were induced to differentiate with DMEM containing 2% Horse Serum for 5 to 6 days until myotubes were fully formed. Cells were then treated with indicated concentration of Compound 2 for 4 and 24 hours.
# (§3) Compound 2 was dissolved in 100% DMSO to a stock concentration of 100 mM. This stock was further diluted to indicated concentrations in DMEM media.
# as §1
# adiponectin = assay: Adiponectin gene expression (real-time PCR) in 3T3L1 adipocytes; type: cell-based; conditions: for adiponectin expression, fold change to control (FIG. 8): 48 hours
# Procedure: Cell Culture: 3T3L1 adipocytes were seeded with 20,000 cells per well on 96-well tissue culture plates in DMEM containing 10% FBS and 1% penicillin-streptomycin. After reaching confluency (3 days), cells were induced to differentiate with a standard differentiation media (DM2-L1, Zen-Bio Inc., NC) for 3 days, then cells were maintained in DMEM (10% FBS, 1% penicillin-streptomycin) for another 8 days to induce lipid accumulation. Cells were then treated with indicated concentration of Compound 2 for 48 hours.
# as §3
# Gene Expression: 3T3L1 adipocytes were grown and treated as described above. The medium was removed and the cells were washed with cold PBS. Cells Lysis, reverse transcription and real-time PCR was performed according to the instructions of the TaqMan® Gene Expression Cells-to-CT™ Kit manual (Life Technologies Inc, Cat #4399002). cDNA was probed with adiponectin and normalized to 18S.
# [3] = system: acetyl-CoA carboxylase (ACC); assay: Western blot, phosphorylated/total acetyl-CoA carboxylase in C2C12 muscle cells; type: cell-based; conditions: for increase in the ratio of phosphorylated to total ACC: 24 h; for ratio of phosphorylated/total ACC (FIG. 6B): 24 hours, control approximately 1.25
# Procedure: as §2, §3, §1
# AMPK [4] = assay: Western blot, phosphorylated/total AMPK in 3T3L1 adipocytes; type: cell-based; conditions: 48 hours; for ratio of phosphorylated/total AMPK (FIG. 5): control approximately 1.52
# Procedure: 3T3L1 adipocytes were seeded with 200,000 cells per well on 6-well tissue culture plates in Dulbecco's modified eagle's medium (DMEM) containing 10% fetal bovine serum (FBS) and antibiotics (1% penicillin-streptomycin) at 37° C. in 5% CO2. After reaching confluency (3 days), cells were induced to differentiate with a standard differentiation media (DM2-L1, Zen-Bio Inc., NC) for 3 days, then cells were maintained in DMEM (10% FBS, 1% penicillin-streptomycin) for another 11 days to induce lipid accumulation. Cells were then treated with indicated concentration of Compound 2 for 48 hours.
# as §3, §1
# [5] = mild oxidative stress (500 uM Paraquat)
smiles,measurement,setting,value
CC(C)C[C@@H]1NC(N=C(N)N)=NC1=O [Compound 2],increase of baseline OCR,"3T3L1 adipocytes; 10 nM, 48 hours of treatment",50%
same,increase of palmitate stimulated OCR,"3T3L1 adipocytes; 10 nM, 48 hours of treatment",43%
same,"baseline OCR, area under the curve (FIG. 10A)",3T3L1 adipocytes; 10 nM,approximately 7900 pMoles/min
same,"palmitate induced OCR, area under the curve (FIG. 10B)",3T3L1 adipocytes; 10 nM,approximately 78000 pMoles/min
same,effect on baseline and palmitate stimulated OCR,"3T3L1 adipocytes; 100 nM, compared with 10 nM",smaller effect
same,"baseline OCR, area under the curve (FIG. 10A)",3T3L1 adipocytes; 100 nM,approximately 7000 pMoles/min
same,"palmitate induced OCR, area under the curve (FIG. 10B)",3T3L1 adipocytes; 100 nM,approximately 62000 pMoles/min
same,increase of maximum lifespan,C. elegans; [5],14%
same,increase of median lifespan,C. elegans; [5],30%
same,increase of median lifespan,C. elegans; normal conditions,18%
same,ratio of P-AMPK/AMPK (FIG. 7B),AMPK [1]; 10 nM,approximately 0.27
same,ratio of P-AMPK/AMPK (FIG. 7B),AMPK [1]; 100 nM,approximately 0.26
same,increase of P-AMPK/AMPK protein expression,"AMPK [1]; L1 stage to adulthood (3 days), p=0.06",approximately 50%
same,effect on the ratio of P-AMPK/AMPK,AMPK [2]; 10 nM,no effect
same,ratio of P-AMPK/AMPK (FIG. 6A),AMPK [2]; 10 nM,approximately 0.65
same,ratio of P-AMPK/AMPK (FIG. 6A),AMPK [2]; 100 nM,approximately 1.35
same,increase in the ratio of P-AMPK/AMPK,"AMPK [2]; 100 nM, p=0.03",78%
same,increase of adiponectin gene expression,"adiponectin; 10 nM and 100 nM, 48 hour treatment",approximately 35%
same,"adiponectin expression, fold change to control (FIG. 8)",adiponectin; 10 nM,approximately 1.35 fold change
same,"adiponectin expression, fold change to control (FIG. 8)",adiponectin; 100 nM,approximately 1.4 fold change
same,increase in the ratio of phosphorylated to total ACC,[3]; 10 nM,46%
same,ratio of phosphorylated/total ACC (FIG. 6B),[3]; 10 nM,approximately 1.8
same,increase in the ratio of phosphorylated to total ACC,[3]; 100 nM,21%
same,ratio of phosphorylated/total ACC (FIG. 6B),[3]; 100 nM,approximately 1.52
same,ratio of phosphorylated/total AMPK (FIG. 5),AMPK [4]; 10 nM,approximately 1.5
same,ratio of phosphorylated/total AMPK (FIG. 5),AMPK [4]; 100 nM,approximately 2.0
same,increase in the ratio of phosphorylated to total AMPK protein expression,"AMPK [4]; 100 nM, p=0.0004",35%
